Reference: ChEMBL document CHEMBL1142168, “Prevalence and susceptibility testing of new species of pseudallescheria and scedosporium in a collection of clinical mold isolates” (2007)
In brackets after ≈: the same amount, converted by molar mass.

What was measured:
Scedosporium aurantiacum [1] = assay: Antifungal activity against Scedosporium aurantiacum ear swab isolate CNM-CM-2846 at 48 hrs; type: functional
[2] = Antifungal activity against Scedosporium aurantiacum bronchial aspirate isolate CNM-CM-4183 at 48 hrs; type: functional
[3] = Antifungal activity against Scedosporium aurantiacum sputum isolate CNM-CM-2631 at 48 hrs; type: functional
Scedosporium aurantiacum [4] = assay: Antifungal activity against Scedosporium aurantiacum corneal isolate CNM-CM-2923 at 48 hrs; type: functional; settings: Cornea
Scedosporium apiospermum = assay: Antifungal activity against Scedosporium apiospermum isolates at 48 hrs

Row | SMILES | MIC (Scedosporium aurantiacum [1]) [µg/mL] | MIC [2] [µg/mL] | MIC [3] [µg/mL] | MIC (Scedosporium aurantiacum [4]) [µg/mL] | MIC (Scedosporium apiospermum) [µg/mL]
1 | C[C@@H]1[C@H](O)[C@@H](C)/C=C/C=C/C=C/C=C/C=C/C=C/C=C/[C@H](O[C@@H]2O[C@H](C)[C@@H](O)[C@H](N)[C@@H]2O)C[C@@H]2O[C@](O)(C[C@@H](O)C[C@@H](O)[C@H](O)CC[C@@H](O)C[C@@H](O)CC(=O)O[C@H]1C)C[C@H](O)[C@H]2C(=O)O [AMPHOTERICIN B] | 16 (≈ 17.3 µM) | 8 (≈ 8.66 µM) | 4 (≈ 4.33 µM) | 8 (≈ 8.66 µM) | 0.25 (≈ 0.271 µM)
2 | C[C@@H](c1ncncc1F)[C@](O)(Cn1cncn1)c1ccc(F)cc1F [VORICONAZOLE] | 1 (≈ 2.86 µM) | 0.5 (≈ 1.43 µM) | 0.5 (≈ 1.43 µM) | 16 (≈ 45.8 µM) | 0.125 (≈ 0.358 µM)
3 | CCC(C)n1ncn(-c2ccc(N3CCN(c4ccc(OCC5COC(Cn6cncn6)(c6ccc(Cl)cc6Cl)O5)cc4)CC3)cc2)c1=O (stereo not given) [ITRACONAZOLE] | 8 (≈ 11.3 µM) | 16 (≈ 22.7 µM) | 2 (≈ 2.83 µM) | 16 (≈ 22.7 µM) | 0.25 (≈ 0.354 µM)
